Source: article PMC5148701 (Journal of medicinal chemistry, 2016)
Where two headings read alike, the source gives them in different places.

Columns and labels:
D2L receptors = D2L receptors (Homo sapiens, UniProt P14416); experiment: D2R β-arrestin-2 recruitment Tango assay; assay type: cell-based; settings: for Emax: HTLA, read-out: β-arrestin Emax (%); for EC50: β-arrestin EC50 (nM), HTLA cells
hD2L receptors = hD2L receptors (Homo sapiens, UniProt P14416); experiment: D2R Gi/o-mediated cAMP inhibition assay; assay type: cell-based; settings: for Emax: HEK-293T; for activity in Gi/o signaling (in words) / decrease of potency in Gi/o pathway compared to compound 1: cAMP inhibition assay
hD2L receptors, sequence (P14416 whole entry): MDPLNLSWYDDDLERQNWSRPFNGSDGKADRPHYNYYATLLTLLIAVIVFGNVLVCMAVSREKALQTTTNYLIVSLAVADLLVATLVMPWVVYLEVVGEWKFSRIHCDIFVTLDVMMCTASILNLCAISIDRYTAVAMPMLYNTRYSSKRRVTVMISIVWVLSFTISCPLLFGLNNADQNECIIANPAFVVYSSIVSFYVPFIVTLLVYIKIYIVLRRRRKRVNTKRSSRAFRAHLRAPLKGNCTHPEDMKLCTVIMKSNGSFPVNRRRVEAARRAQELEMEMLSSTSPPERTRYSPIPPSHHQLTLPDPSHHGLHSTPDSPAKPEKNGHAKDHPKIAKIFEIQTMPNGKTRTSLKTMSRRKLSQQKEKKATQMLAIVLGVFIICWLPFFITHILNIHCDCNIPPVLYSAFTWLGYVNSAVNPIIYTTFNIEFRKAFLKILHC

[1] = read-out: cAMP Emax (%), HEK293T cells, GloSensor-22F, normalized to maximum cAMP inhibition by quinpirole (100%)

D2L receptors, sequence (P14416 whole entry): as above

SMILES	Emax (D2L receptors)	EC50 (D2L receptors; Tango assay)	Emax (hD2L receptors; read-out: cAMP Emax (%))	Emax (hD2L receptors; [1])	further results
O=c1[nH]c2cc(OCCCCN3CCN(c4cccc(Cl)c4Cl)CC3)ccc2s1 [Compound 7, 5-(4-(4-(2,3-Dichlorophenyl)piperazin-1-yl)butoxy)benzo[d]thiazol-2(3H)-one]	59%	2.6 nM	67%		
Cc1nc2ccc(OCCCCN3CCC(c4cccc(Cl)c4Cl)CC3)cc2s1 [Compound 58, 6-(4-(4-(2,3-Dichlorophenyl)piperidin-1-yl)butoxy)-2-methylbenzo[d]thiazole]	24%	460 nM		56%	
Cc1ccc2cccc(N3CCN(CCCCOc4ccc5sc(C)nc5c4)CC3)c2n1 [Compound 36, 2-Methyl-5-(4-(4-(2-methylquinolin-8-yl)piperazin-1-yl)butoxy)benzo[d]thiazole]	< 20%		25%		
CCc1nc2cc(OCCCCN3CCN(c4cccc5c4OCCO5)CC3)ccc2s1 [Compound 52, 5-(4-(4-(2,3-Dihydrobenzo[b][1,4]dioxin-5-yl)piperazin-1-yl)butoxy)-2-ethylbenzo[d]thiazole]					activity in β-arrestin recruitment (in words) (D2L receptors; Tango assay): inactive; activity in Gi/o signaling (in words) (hD2L receptors): inactive
CCc1nc2cc(OCCCCN3CCN(c4cccc(Cl)c4Cl)CC3)ccc2s1 [Compound 18, 5-(4-(4-(2,3-Dichlorophenyl)piperazin-1-yl)butoxy)-2-ethylbenzo[d]thiazole]	< 20%			43%	
CC(C)c1nc2cc(OCCCCN3CCN(c4cccc(Cl)c4Cl)CC3)ccc2s1 [Compound 19, 5-(4-(4-(2,3-Dichlorophenyl)piperazin-1-yl)butoxy)-2-isopropylbenzo[d]thiazole]	< 20%			33%	
CCc1nc2cc(OCCCCN3CCN(c4cccc5ccc(C)nc45)CC3)ccc2s1 [Compound 48, 2-Ethyl-5-(4-(4-(2-methylquinolin-8-yl)piperazin-1-yl)butoxy)benzo[d]thiazole]	< 20%			33%	
Cc1nc2cc(OCCCN3CCN(c4cccc(Cl)c4Cl)CC3)ccc2s1 [Compound 2, 5-(3-(4-(2,3-Dichlorophenyl)piperazin-1-yl)propoxy)-2-methylbenzo[d]thiazole]					D2R agonist profile in β-arrestin and Gi/o pathways (hD2L receptors; compared with β-arrestin recruitment Tango assay): balanced D2R agonist
FC(F)(F)c1nc2cc(OCCCCN3CCN(c4cccc(Cl)c4Cl)CC3)ccc2s1 [Compound 11, 5-(4-(4-(2,3-Dichlorophenyl)piperazin-1-yl)butoxy)-2-(trifluoromethyl)benzo[d]thiazole]	40%				
CNc1nc2cc(OCCCCN3CCN(c4cccc5c4OCCO5)CC3)ccc2s1 [Compound 57, 5-(4-(4-(2,3-Dihydrobenzo[b][1,4]dioxin-5-yl)piperazin-1-yl)butoxy)-N-methylbenzo[d]thiazol-2-amine]					activity in β-arrestin recruitment (in words) (D2L receptors; Tango assay): inactive; activity in Gi/o signaling (in words) (hD2L receptors): inactive
Cc1nc2cc(OCCCCN3CCN(c4cccc(Cl)c4Cl)[C@@H](C)C3)ccc2s1 [Compound 34, (S)-5-(4-(4-(2,3-Dichlorophenyl)-3-methylpiperazin-1-yl)butoxy)-2-methylbenzo[d]thiazole]					activity in β-arrestin recruitment (in words) (D2L receptors; Tango assay): no appreciable activity; activity in Gi/o signaling (in words) (hD2L receptors): no appreciable activity
Cc1nc2cc(OCCCCN3CCC(c4cccc(Cl)c4Cl)CC3)ccc2s1 [Compound 30, 5-(4-(4-(2,3-Dichlorophenyl)piperidin-1-yl)butoxy)-2-methylbenzo[d]thiazole]	31%	49 nM	66%		
CCc1nc2cc(OCCCCN3CCN(c4cccc5c4OCCN5)CC3)ccc2s1 [Compound 50, 8-(4-(4-((2-Ethylbenzo[d]thiazol-5-yl)oxy)butyl)piperazin-1-yl)-3,4-dihydro-2H-benzo[b][1,4]oxazine]	33%	6.4 nM			
CN(C)c1nc2cc(OCCCCN3CCN(c4cccc(Cl)c4Cl)CC3)ccc2s1 [Compound 25, 5-(4-(4-(2,3-Dichlorophenyl)piperazin-1-yl)butoxy)-N,N-dimethylbenzo[d]thiazol-2-amine]					activity in β-arrestin recruitment (in words) (D2L receptors; Tango assay): did not show any activity; activity in Gi/o signaling (in words) (hD2L receptors): did not show any activity
COc1ccccc1N1CCN(CCCCOc2ccc3sc(C)nc3c2)CC1 [Compound 32, 5-(4-(4-(2-Methoxyphenyl)piperazin-1-yl)butoxy)-2-methylbenzo[d]thiazole]	25%	8.5 nM	61%		decrease of potency in Gi/o pathway compared to compound 1 (hD2L receptors): around 5 fold
CC(C)c1nc2cc(OCCCCN3CCC(c4cccc(Cl)c4Cl)CC3)ccc2s1 [Compound 47, 5-(4-(4-(2,3-Dichlorophenyl)piperidin-1-yl)butoxy)-2-isopropylbenzo[d]thiazole]	< 20%			33%	
Cc1nc2cc(OCCCCN3CCN(c4cccc5c4OCCO5)CC3)ccc2s1 [Compound 40, 5-(4-(4-(2,3-Dihydrobenzo[b][1,4]dioxin-5-yl)piperazin-1-yl)butoxy)-2-methylbenzo[d]thiazole]		3.6 nM	50%		
Clc1nc2cc(OCCCCN3CCN(c4cccc(Cl)c4Cl)CC3)ccc2s1 [Compound 6, 2-Chloro-5-(4-(4-(2,3-dichlorophenyl)piperazin-1-yl)butoxy)benzo[d]thiazole]	40%	48 nM		50%	
Cc1nc2cc(OCCCCN3CCN(c4cccc(-c5ccccc5)c4C)CC3)ccc2s1 [Compound 44, 2-Methyl-5-(4-(4-(2-methyl-[1,1'-biphenyl]-3-yl)piperazin-1-yl)butoxy)benzo[d]thiazole]					activity in β-arrestin recruitment (in words) (D2L receptors; Tango assay): completely inactive; activity in Gi/o signaling (in words) (hD2L receptors): completely inactive
Cc1nc2cc(OCCCCN3CCN(c4cccc5[nH]c(=O)oc45)CC3)ccc2s1 [Compound 45, 7-(4-(4-((2-Methylbenzo[d]thiazol-5-yl)oxy)butyl)piperazin-1-yl)benzo[d]oxazol-2(3H)-one]	88%	0.36 nM	90%		
CNc1nc2cc(OCCCCN3CCN(c4cccc5c4OCCN5)CC3)ccc2s1 [Compound 56, 5-(4-(4-(3,4-Dihydro-2H-benzo[b][1,4]oxazin-8-yl)piperazin-1-yl)butoxy)-N-methylbenzo[d]thiazol-2-amine]	29%	6.5 nM		49%	
CC(C)c1nc2cc(OCCCCN3CCN(c4cccc5c4OCCN5)CC3)ccc2s1 [Compound 51, 8-(4-(4-((2-Isopropylbenzo[d]thiazol-5-yl)oxy)butyl)piperazin-1-yl)-3,4-dihydro-2H-benzo[b][1,4]oxazine]				48%	
Cc1nc2cc(OCCCCN3CCN(c4cccc5c4OCCN5)CC3)ccc2s1 [Compound 39, 8-(4-(4-((2-Methylbenzo[d]thiazol-5-yl)oxy)butyl)piperazin-1-yl)-3,4-dihydro-2H-benzo[b][1,4]oxazine]	< 20%		29%		activity in β-arrestin recruitment (in words) (D2L receptors; Tango assay): did not recruit β-arrestin at all
Cc1nc2cc(OCCCCN3CCCN(c4cccc(Cl)c4Cl)CC3)ccc2s1 [Compound 31, 5-(4-(4-(2,3-Dichlorophenyl)-1,4-diazepan-1-yl)butoxy)-2-methylbenzo[d]thiazole]	< 20%		22%		activity in β-arrestin recruitment (in words) (D2L receptors; Tango assay): inactive
Cc1nc2ccc(OCCCCN3CCN(c4cccc(Cl)c4Cl)CC3)cc2s1 [Compound 3, 6-(4-(4-(2,3-Dichlorophenyl)piperazin-1-yl)butoxy)-2-methylbenzo[d]thiazole]	22%	76 nM	42%		decrease of potency in β-arrestin recruitment compared to compound 1 (D2L receptors; Tango assay): 5 fold; decrease of potency in Gi/o pathway compared to compound 1 (hD2L receptors): 2 fold
